The results in this text go back to patent US8487117B2, “Atropisomers of (hydroxyalkyl) pyrrole derivatives” (Exelixis, Inc., priority 2008, dated 2013).

Data set [1] concerns the target T1, human mineralocorticoid receptor (hMR), GAL4-hMR receptor (Homo sapiens, UniProt P08235).
T1 construct: expressed in transfected cells; host or cells: HEK293
T1 sequence (P08235 726-964 limits assumed): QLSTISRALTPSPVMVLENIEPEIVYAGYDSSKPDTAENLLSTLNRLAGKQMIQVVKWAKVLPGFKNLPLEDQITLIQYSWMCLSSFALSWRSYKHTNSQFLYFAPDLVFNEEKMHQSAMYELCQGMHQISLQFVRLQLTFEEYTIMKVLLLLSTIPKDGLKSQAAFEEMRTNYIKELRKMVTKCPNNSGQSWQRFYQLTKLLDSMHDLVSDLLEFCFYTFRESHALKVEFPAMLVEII
As to the kind of experiment: GAL4-hMR-LBD luciferase reporter assay in HEK293 cells with 1 nM aldosterone (mineralocorticoid receptor antagonistic action). Type of data set: cell-based. To be noted: for IC50: concentration which shows Imax/2, HEK293, GAL4-hMR-LBD, luciferase, with 1 nM aldosterone, read-out: ICmax50; for Imax: maximum value, DMSO control = 0%, 1 nM aldosterone control = 100%, HEK293 luciferase reporter. As for the experimental part:
A plasmid pM-hMR-LBD expressing GAL4-hMR receptor, which has a ligand binding domain (LBD, corresponds to approximately 308 amino acids at the carboxy terminus) of human mineralocorticoid receptor (hMR, NM_000901) bonded to a DNA binding domain of yeast transcription factor GAL4 (corresponding to 147 amino acids at the amino terminus), was prepared. Reporter assay was conducted by using a reporter plasmid (such as STRATAGENE CLONING SYSTEMS, pFR-Luc) including a luciferase gene, having a sequence (UAS sequence) which binds to the DNA binding domain of GAL4.
The plasmid pM-hMR-LBD and the reporter plasmid as obtained above were gene transferred into renal cell line HEK293 of human fetus by lipofection. On the next day, cells were collected by trypsin treatment, and were dispensed with DMEM culture medium containing 5% of FBS treated by activated charcoal, to a white 96-well plate (Costar) with the amount of 95 microliter per well.
The Test Compounds were used by dissolving them in dimethyl sulfoxide at a predetermined concentration, and the test compounds suitably diluted with culture media were added to the cells on the white 96-well plate so that the final concentration becomes 0.1%. When adding the Test Compounds, they were accompanied with 1 nM aldosterone. The well group of Control group 1 was added with dimethyl sulfoxide, and the well group of Control group 2 was added with 1 nM aldosterone. After addition, cultivation was carried out overnight.
On the next day, the culture media was removed, and then luciferase substrate (Wako Pure Chemical Industries, Ltd.) was prepared in accordance with the attached document and were added to each well by 50 microliters. Stirring was conducted for approximately 30 minutes, and the amount of luminescence was measured for each well by using Analyst (Molecular Devices), to obtain luciferase activity. A graph which plots relative luciferase activity values, when the luciferase activity value of Control group 1 was taken as 0% and the luciferase activity value of Control group 2 was taken as 100%, for each of the amount of the test compound addition group was made.
(A reporter such as luciferase makes a cellular process visible.)

Data set [2] in a line: Plasma concentration after intragastric administration to cynomolgus monkey (LC-MS/MS). To be noted: male cynomolgus monkey, fasted, 3 mg/kg intragastric in 0.5% MC; for AUC: Area under the plasma concentration versus time curve: blood up to 48 h, noncompartment model; for Cmax: po, plasma, read-out: Cmax: Maximum concentration. Type of data set: in vivo. As for the experimental part:
Cynomolgus monkey (male) was used, and was fasted from the day before the administration of the Test Compound.
Administration samples were prepared by adding 0.5% MC (methyl cellulose) solution to the Test Compound, so that the dose becomes 3 mg/2 mL/kg. Each of the administration samples was administered intragastrically to the cynomolgus monkey by using a tube. After the samples were administered, approximately 5 mL of 0.5% MC was administered. For each of the administration samples, a group of two cynomolgus monkeys was administered.
With respect to collection of blood, it was conducted by collecting approximately 0.5 mL of blood from femoral vein using a glass syringe treated with heparin, before administration, and 30 minutes, 1, 2, 4, 6, 8, 24 and 48 hours after administration. Blood was centrifuged (1,700×g, 15 min, 4° C.) to obtain plasma. Plasma was stored in a freezer (−20° C.) until pretreatment.
Preparation of standard solution and internal standard (“IS”) solution: Each of the Test Compounds was dissolved in DMSO (dimethyl sulfoxide) to prepare a solution of 10 mM each. Each of the compound solution was diluted with acetonitrile, and thus standard solution was prepared. Further, niflumic acid (Wako Pure Chemical Industries, Ltd.) was dissolved in DMSO at the concentration of 2 mM, followed by dilution with acetonitrile to prepare an IS solution of 2 μM.
Pretreatment of plasma samples: 20 μL of plasma sample was collected, and then 25 μL of purified water, 100 μL of acetonitrile, and 100 μL of methanol was added. For the preparation of a calibration curve, 25 μL of purified water, 20 μL of each of the standard solutions (acetonitrile solution), 80 μL of acetonitrile, and 100 μL of methanol were added to 20 μL of blank plasma. 40 μL of the acetonitrile solution of IS was added to all of the samples, and then the samples were stirred, filtered by suction using Captiva filter plate (Varian, Inc.), and then the filtrate was used as the sample for LC-MS/MS analysis.
Quantitative Determination of Test Compound: Concentration in plasma was analyzed by LC-MS/MS method for each Test Compound.
[HPLC Analysis Conditions]
• HPLC: WATERS 2795 (Waters Corporation); • Column: CAPCELL PAK C8, 2.0 mm I.D.×50 mm, 5 μm (Shiseido Co., Ltd.) • Mobile Phase: A=5 mM ammonium acetate aqueous solution, B=acetonitrile [MS/MS Analysis Conditions] • MS: Quattro micro API (Waters Corporation) • Ionization Method: Electrospray Ionization (“ESI”) • Ionization Mode: Positive • Detection Mode: MRM • Analysis: Pharmacokinetic parameter was calculated from concentration of each of the drugs in plasma, by using WinNonlin Professional (Ver. 4.0.1, Pharsight Corporation). Here, noncompartment model was used as the model for parameter calculation. (Results)

Regarding `Cc1c(C(=O)Nc2ccc(S(C)(=O)=O)cc2)cn([C@H](C)[C@H](C)O)c1-c1ccc(F)cc1Cl` [Example 4, 5-(2-Chloro-4-fluorophenyl)-1-[(1R,2S)-2-hydroxy-1-methylpropyl]-4-methyl-N-[4-(methylsulfonyl)phenyl]-1H-pyrrole-3-carboxamide], in data set [1], the IC50 was 10 nM and the Imax stood at 106%.
Consider `Cc1c(C(=O)Nc2ccc(S(C)(=O)=O)cc2)cn([C@H](C)[C@H](C)O)c1-c1ccc(Cl)cc1C(F)(F)F` (single isomer, unassigned) [Example 3-isomer B], for which the IC50 in data set [1] was above 1000 nM.
Turning to `Cc1c(C(=O)Nc2ccc(S(C)(=O)=O)cc2)cn([C@H](C)[C@H](C)O)c1-c1ccccc1C(F)(F)F` [Example 1, 1-[(1R,2S)-2-Hydroxy-1-methylpropyl]-4-methyl-N-[4-(methylsulfonyl)phenyl]-5-[2-(trifluoromethyl)phenyl]-1H-pyrrole-3-carboxamide], in data set [1], the IC50 was 6.6 nM and the Imax came out at 115%.
Turning to `Cc1c(C(=O)Nc2ccc(S(C)(=O)=O)cc2)cn([C@H](C)[C@H](C)O)c1-c1ccc(F)cc1C(F)(F)F` (single isomer, unassigned) [Example 2-isomer B], the IC50 in data set [1] is above 1000 nM.
Still for that read-out and setting: with `Cc1c(C(=O)Nc2ccc(S(C)(=O)=O)cc2)cn([C@H](C)[C@H](C)O)c1-c1ccccc1C(F)(F)F` (single isomer, unassigned) [Example 1-isomer B] the figure was above 1000 nM.
`Cc1c(C(=O)Nc2ccc(S(C)(=O)=O)cc2)cn(CCO)c1-c1ccccc1C(F)(F)F` (racemic) [Comparative compound, 1-(2-hydroxyethyl)-4-methyl-N-[4-(methylsulfonyl)phenyl]-5-[2-(trifluoromethyl)phenyl]-1H-pyrrole-3-carboxamide, reference compound]: in data set [1], the IC50 worked out at 5.3 nM and the Imax is given as 105%. Besides, in data set [2], the “AUC: Area under the plasma concentration versus time curve” value came to 4090 ng·h/mL and the Cmax worked out at 230 ng/mL.
Take `Cc1c(C(=O)Nc2ccc(S(C)(=O)=O)cc2)cn([C@H](C)[C@H](C)O)c1-c1ccc(F)cc1Cl` (single isomer, unassigned) [Example 4-isomer B]: the IC50 in data set [1] is above 1000 nM.
For the compound `Cc1c(C(=O)Nc2ccc(S(C)(=O)=O)cc2)cn([C@H](C)[C@H](C)O)c1-c1ccc(F)cc1C(F)(F)F` (single isomer, unassigned) [Example 2-isomer A], in data set [1], the IC50 is 3.8 nM and the Imax is given as 103%. Further, in data set [2], the “AUC: Area under the plasma concentration versus time curve” value stood at 30320 ng·h/mL and the Cmax was found to be 1280 ng/mL.
With `Cc1c(C(=O)Nc2ccc(S(C)(=O)=O)cc2)cn([C@H](C)[C@H](C)O)c1-c1ccc(F)cc1C(F)(F)F` [Example 2, 5-[4-Fluoro-2-(trifluoromethyl)phenyl]-1-[(1R,2S)-2-hydroxy-1-methylpropyl]-4-methyl-N-[4-(methylsulfonyl)phenyl]-1H-pyrrole-3-carboxamide], in data set [1], the IC50 stood at 6.2 nM and the Imax worked out at 88%.
In the same order, the values of `Cc1c(C(=O)Nc2ccc(S(C)(=O)=O)cc2)cn([C@H](C)[C@H](C)O)c1-c1ccccc1C(F)(F)F` (single isomer, unassigned) [Example 1-isomer A] are 2.9 nM and 117%.
In the same order, the values of `Cc1c(C(=O)Nc2ccc(S(C)(=O)=O)cc2)cn([C@H](C)[C@H](C)O)c1-c1ccc(F)cc1Cl` (single isomer, unassigned) [Example 4-isomer A] are 11 nM and 103%.
Take `Cc1c(C(=O)Nc2ccc(S(C)(=O)=O)cc2)cn([C@H](C)[C@H](C)O)c1-c1ccc(Cl)cc1C(F)(F)F` (single isomer, unassigned) [Example 3-isomer A]: in data set [1], the IC50 was 4.6 nM and the Imax was 108%. For the same compound, in data set [2], the “AUC: Area under the plasma concentration versus time curve” value stood at 42490 ng·h/mL and the Cmax was 1440 ng/mL.
Turning to `Cc1c(C(=O)Nc2ccc(S(C)(=O)=O)cc2)cn([C@H](C)[C@H](C)O)c1-c1ccc(Cl)cc1C(F)(F)F` (atropisomer, axis not shown) [Example 3, 5-[4-Chloro-2-(trifluoromethyl)phenyl]-1-[(1R,2S)-2-hydroxy-1-methylpropyl]-4-methyl-N-[4-(methylsulfonyl)phenyl]-1H-pyrrole-3-carboxamide], in data set [1], the IC50 was determined as 6.7 nM and the Imax is 95%.
